In publication PMC2229537 (The Journal of General Physiology, 2002):
Values joined by “and” are separate entries in the source; they are usually repeats but may differ in a detail not shown here. Equal values may be shown once.

Key:
[1] = tested on: EP AChRs of CMS patient (εD175N and εN182Y); experiment: Patch-clamp recordings of ACh-elicited channel currents from patient endplates; assay type: cell-based, human; conditions: −80 mV
Torpedo receptor = conditions: resting closed state; ref Sine et al., 1990; cited from earlier work
adult human receptor = conditions: resting closed state; ref Ohno et al., 1996; Wang et al., 1999; cited from earlier work
fetal mouse receptor = conditions: resting closed state; ref Zhang et al., 1995; cited from earlier work
wild-type AChR = wild-type AChR (Homo sapiens, UniProt P02708+Q04844+Q07001); assay type: binding; conditions: 100 μM proadifen
[2] = ACh 5 μM, 8 kHz, 22°C, mean ± SE, four EPs

wild-type AChR, sequence (P02708 21-457): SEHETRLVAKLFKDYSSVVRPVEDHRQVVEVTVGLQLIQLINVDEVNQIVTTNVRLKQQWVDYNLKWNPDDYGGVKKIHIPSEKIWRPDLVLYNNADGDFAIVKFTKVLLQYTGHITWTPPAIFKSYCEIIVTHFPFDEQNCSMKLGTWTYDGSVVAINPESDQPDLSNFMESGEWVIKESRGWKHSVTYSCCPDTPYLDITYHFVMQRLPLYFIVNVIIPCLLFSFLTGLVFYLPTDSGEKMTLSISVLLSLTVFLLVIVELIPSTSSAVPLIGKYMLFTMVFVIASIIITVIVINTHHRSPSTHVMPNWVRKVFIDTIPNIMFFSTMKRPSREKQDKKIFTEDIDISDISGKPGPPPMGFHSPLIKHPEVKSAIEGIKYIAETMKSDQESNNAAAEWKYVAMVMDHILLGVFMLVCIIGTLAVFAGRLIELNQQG
wild-type AChR, sequence (P11230 24-501 partner): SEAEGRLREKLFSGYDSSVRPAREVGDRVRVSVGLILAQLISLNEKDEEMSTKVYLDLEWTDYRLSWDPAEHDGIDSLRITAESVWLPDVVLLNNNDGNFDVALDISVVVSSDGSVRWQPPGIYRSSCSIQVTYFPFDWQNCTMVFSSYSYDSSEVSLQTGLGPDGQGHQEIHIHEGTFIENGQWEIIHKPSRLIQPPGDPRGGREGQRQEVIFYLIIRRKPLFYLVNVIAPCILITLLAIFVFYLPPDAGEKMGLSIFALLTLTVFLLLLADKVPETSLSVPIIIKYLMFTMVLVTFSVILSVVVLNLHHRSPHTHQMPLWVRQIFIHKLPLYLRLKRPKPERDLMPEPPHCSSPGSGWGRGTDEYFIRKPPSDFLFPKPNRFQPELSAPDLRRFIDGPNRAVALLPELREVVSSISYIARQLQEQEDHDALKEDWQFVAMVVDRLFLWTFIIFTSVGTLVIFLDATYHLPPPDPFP
wild-type AChR, sequence (Q07001 22-517): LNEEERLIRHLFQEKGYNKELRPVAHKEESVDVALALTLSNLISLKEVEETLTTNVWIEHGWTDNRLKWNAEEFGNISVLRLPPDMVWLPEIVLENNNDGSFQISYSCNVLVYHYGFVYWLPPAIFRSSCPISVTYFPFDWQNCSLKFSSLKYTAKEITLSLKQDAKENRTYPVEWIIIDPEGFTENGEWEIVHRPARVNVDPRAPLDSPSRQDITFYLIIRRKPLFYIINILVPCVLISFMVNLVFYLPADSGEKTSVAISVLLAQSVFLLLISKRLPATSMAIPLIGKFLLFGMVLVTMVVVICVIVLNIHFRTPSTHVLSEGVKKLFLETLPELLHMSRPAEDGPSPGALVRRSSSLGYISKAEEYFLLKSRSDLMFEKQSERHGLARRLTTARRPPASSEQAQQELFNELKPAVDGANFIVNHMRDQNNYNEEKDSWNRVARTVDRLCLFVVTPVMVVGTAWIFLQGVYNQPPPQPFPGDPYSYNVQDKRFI
wild-type AChR, sequence (Q04844 21-493): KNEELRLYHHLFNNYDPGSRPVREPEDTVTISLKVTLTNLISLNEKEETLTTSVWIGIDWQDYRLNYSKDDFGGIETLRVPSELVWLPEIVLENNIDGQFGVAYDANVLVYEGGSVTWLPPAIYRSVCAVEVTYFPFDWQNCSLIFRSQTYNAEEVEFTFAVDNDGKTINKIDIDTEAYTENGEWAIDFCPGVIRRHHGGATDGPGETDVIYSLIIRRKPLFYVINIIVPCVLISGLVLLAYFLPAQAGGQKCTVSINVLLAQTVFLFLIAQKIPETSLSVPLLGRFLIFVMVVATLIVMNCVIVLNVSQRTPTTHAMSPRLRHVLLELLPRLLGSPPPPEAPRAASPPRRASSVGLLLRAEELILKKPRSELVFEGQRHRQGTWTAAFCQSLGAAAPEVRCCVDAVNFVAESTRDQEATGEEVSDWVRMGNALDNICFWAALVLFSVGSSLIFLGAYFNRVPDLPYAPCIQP

SMILES	Bursts τ1 [1, 2] [ms]	Bursts τ2 [1, 2]	Bursts, area of τ1 component [1, 2]	Bursts, area of τ2 component [1, 2]	Open intervals τ1 [1, 2] [ms]	Open intervals τ2 [1, 2] [ms]	Open intervals, area of τ1 component [1, 2]	Open intervals, area of τ2 component [1, 2]	burst duration time constant τ1 ([1]; Fig. 1 histogram, one patient, 5 μM ACh)	difference in ACh affinity for the two sites (Torpedo receptor) [fold]	difference in ACh affinity for the two sites (adult human receptor)	difference in ACh affinity for the two sites (fetal mouse receptor) [fold]	increase of ACh affinity in the presence of proadifen (wild-type AChR) [fold]
CC(=O)OCC[N+](C)(C)C [ACh, acetylcholine]	0.17 ± 0.025	0.59 ms and 0.59 ± 0.061 ms	0.61 ± 0.061	0.39 ± 0.061	0.17 ± 0.021	0.51 ± 0.037	0.65 ± 0.19	0.34 ± 0.096	0.185	~100	sixfold	32	–
CCCC(C(=O)OCCN(CC)CC)(c1ccccc1)c1ccccc1 [proadifen]	–	–	–	–	–	–	–	–	–	–	–	–	~100
